# In article PMC10487436, “Towards Anticancer and Antibacterial Agents: Design and Synthesis of 1,2,3-Triazol-quinobenzothiazine Derivatives” (International Journal of Molecular Sciences, 2023):
# What was measured:
# [1] = tested on: A549 (human lung carcinoma); experiment: WST-1 proliferation assay, A549; format: cell-based; conditions: Homo sapiens, A549, 72 h exposure
# Protocol: (§1) Compounds were evaluated for their antiproliferative activity using three cultured cell lines: A549 (human lung carcinoma, ATCC, Manassas, VA, USA), SNB-19 (human glioblastoma, DSMZ, German Collection of Microorganisms and Cell Cultures), T-47D (human breast cancer, ATCC, Manassas, VA, USA), and NHDF (normal human dermal fibroblasts, ATCC, Manassas, VA, USA). The cultured cells were kept at 37 °C and 5% CO2. The cells were seeded (1 × 10^4 cells/well/100 μL DMEM supplemented with 10% FCS, streptomycin, and penicillin) using 96-well plates (corning). Cells were counted in a hemocytometer (Burker chamber) using a phase contrast Olympus IX50 microscope equipped with a Sony SSC-DC58 AP camera and an Olympus DP10 digital camera.
# (§2) The antiproliferative effect of the compounds exerted on cancer and normal cells was determined using the Cell Proliferation Reagent WST-1 assay (Roche Molecular Biochemicals, Mannheim, Germany). This assay is based on a colorimetric method using the enzymatic ability of viable cells to cause the bright, red-colored stable tetrazolium monosodium salt [2-(4-iodophenyl)-3-(4-nitrophenyl)-5-(2,4-disulfophenyl)–2H-tetra-zolium] to transform into the dark, red-colored soluble formazan. […] An increase in the amount of formazan dye formed correlated with the number of metabolically active cells in the culture. The formazan dye produced by metabolically active cells was quantified by absorbance readings at appropriate wavelengths. The examined cells were exposed to the tested compounds (1 mM DMSO stock) for 72 h at various concentrations (0.1–100 μM). The control was performed in order to eliminate the DMSO effect at the concentration used. Cell cultures were incubated with WST-1 (10 μL) for 1 h. The absorbance of the samples was measured against a background control at 450 nm using a microplate reader with a reference wavelength at 600 nm. The obtained results are expressed as the means of at least two independent experiments performed in triplicate. The antiproliferative activity of the tested compounds was compared to that of cisplatinum. The values of IC50 (a concentration of a compound that is required for 50% inhibition) were calculated from the dose-response relationship with respect to control. The results were reported as the mean (±std) of three separate experiments.
# [2] = tested on: Mycobacterium smegmatis ATCC 700084; experiment: MBC, agar aliquot subculture method, MS; format: cell-based; conditions: Mycolicibacterium smegmatis, ATCC700084
# Protocol: (§3) For the above-mentioned strains/isolates, the agar aliquot subculture method was used as a test for bactericidal agents. After the MIC value determination, the inoculum was transferred to CaMH (Oxoid) for staphylococci, BHI (Oxoid) for enterococci, and Middlebrook 7H9 (Difco) for mycobacteria medium using a multipoint inoculator. As indicated above, the plates were incubated on a thermostat at 37 °C for the appropriate time for each micro-organism. The lowest concentration of test compound at which ≤5 colonies were obtained was then evaluated as MBC, corresponding to a 99.9% decrease in CFU relative to the original inoculum.
# [3] = tested on: Staphylococcus aureus ATCC 29213; experiment: MIC, microtitration broth method, SA; format: cell-based; conditions: ATCC29213, 24 h at 37 °C
# Protocol: (§4) In vitro antibacterial activity of the synthesized compounds was evaluated against representatives of multidrug-resistant bacteria, three clinical isolates of methicillin-resistant S. aureus: clinical isolates of animal origin, MRSA 63718 (Department of Infectious Diseases and Microbiology, Faculty of Veterinary Medicine, University of Veterinary Sciences Brno, Czech Republic), carrying the mecA gene; and MRSA SA 630 and MRSA SA 3202 [52] (National Institute of Public Health, Prague, Czech Republic), both of human origin. […] Vancomycin- and methicillin-susceptible S. aureus ATCC 29213 and vancomycin-susceptible Enterococcus faecalis ATCC 29212, obtained from the American Type Culture Collection, were used as the reference and quality control strains. Three vanA gene-carrying vancomycin-resistant isolates of E. faecalis (VRE 342B, VRE 368, VRE 725B) were provided by Oravcova et al..
# (§5) The minimum inhibitory concentrations (MICs) were evaluated by the microtitration broth method according to the CLSI, with some modifications. The compounds were dissolved in DMSO (Sigma, St. Louis, MO, USA) to obtain a concentration of […] and diluted in a microtitration plate in an appropriate medium, i.e., Cation Adjusted Mueller–Hinton Broth (CaMH, Oxoid, Basingstoke, UK) for staphylococci, and Brain Heart Infusion Broth (BHI, Oxoid) for enterococci, to reach the final concentration of 256–0.125 µg/mL. Microtiter plates were inoculated with test micro-organisms so that the final concentration of bacterial cells was 10^5. […] A drug-free control and a sterility control were included. The plates were incubated for 24 h at 37 °C for staphylococci and enterococci. […] The experiments were repeated three times.
# [4] = tested on: methicillin-resistant S. aureus 63718; experiment: MIC, microtitration broth method, MRSA3; format: cell-based; conditions: Staphylococcus aureus; 24 h at 37 °C
# Protocol: as §4, §5
# [5] = tested on: Mycobacterium marinum CAMP 5644; experiment: MBC, agar aliquot subculture method, MM; format: cell-based; conditions: CAMP5644
# Protocol: as §3
# [6] = tested on: Mycobacterium smegmatis ATCC 700084; experiment: MIC, broth dilution micro-method, MS; format: cell-based; conditions: Mycolicibacterium smegmatis, ATCC700084, 72 h; 3 days at 37 °C
# [7] = tested on: Mycobacterium marinum CAMP 5644; experiment: MIC, broth dilution micro-method, MM; format: cell-based; conditions: CAMP5644, 504 h, 21 days at 28 °C
# [8] = tested on: Staphylococcus aureus ATCC 29213; experiment: MBC, agar aliquot subculture method, SA; format: cell-based; conditions: ATCC29213
# Protocol: as §3
# [9] = tested on: Enterococcus faecalis ATCC 29213; experiment: MIC, microtitration broth method, EF; format: cell-based; conditions: ATCC29213, 24 h at 37 °C
# [10] = tested on: methicillin-resistant S. aureus 63718; experiment: MBC, agar aliquot subculture method, MRSA3; format: cell-based; conditions: Staphylococcus aureus
# Protocol: as §3
# [11] = tested on: vancomycin-resistant E. faecalis VRE 342B; experiment: MIC, microtitration broth method, VRE1; format: cell-based; conditions: Enterococcus faecalis, 24 h at 37 °C
# Protocol: as §4, §5
# [12] = tested on: vancomycin-resistant E. faecalis VRE 725B; experiment: MIC, microtitration broth method, VRE3; format: cell-based; conditions: Enterococcus faecalis, 24 h at 37 °C
# Protocol: as §4, §5
# [13] = tested on: methicillin-resistant S. aureus SA 630; experiment: MBC, agar aliquot subculture method, MRSA2; format: cell-based; conditions: Staphylococcus aureus
# Protocol: as §3
# [14] = tested on: Mycobacterium smegmatis ATCC 700084; conditions: 3 days; for Conc.: lowest multiple of MBC with at least 70% inhibition of respiratory activity / Conc.: lowest multiple of MIC with at least 70% inhibition of respiratory activity: MTT; for M. smegmatis Respiration Inhibition: at the concentration (lowest multiple of MIC with at least 70% inhibition)
# [15] = tested on: vancomycin-resistant E. faecalis VRE 368; experiment: MIC, microtitration broth method, VRE2; format: cell-based; conditions: Enterococcus faecalis, 24 h at 37 °C
# Protocol: as §4, §5
# [16] = tested on: methicillin-resistant S. aureus SA 3202; experiment: MIC, microtitration broth method, MRSA1; format: cell-based; conditions: Staphylococcus aureus; 24 h at 37 °C
# Protocol: as §4, §5
# [17] = tested on: T-47D (human breast cancer); experiment: WST-1 proliferation assay, T47D; format: cell-based; conditions: Homo sapiens, T47D, 72 h exposure
# Protocol: as §1, §2
# [18] = tested on: methicillin-resistant S. aureus SA 3202; experiment: MBC, agar aliquot subculture method, MRSA1; format: cell-based; conditions: Staphylococcus aureus
# Protocol: as §3
# [19] = tested on: NHDF (normal human dermal fibroblasts); experiment: WST-1 proliferation assay, NHDF; format: cell-based; conditions: Homo sapiens, NHDF, normal cells, 72 h exposure
# Protocol: as §1, §2
# [20] = tested on: methicillin-resistant S. aureus SA 630; experiment: MIC, microtitration broth method, MRSA2; format: cell-based; conditions: Staphylococcus aureus; 24 h at 37 °C
# Protocol: as §4, §5
# [21] = tested on: SNB-19 (human glioblastoma); experiment: WST-1 proliferation assay, SNB-19; format: cell-based; conditions: Homo sapiens, SNB-19, 72 h exposure
# Protocol: as §1, §2
SMILES,IC50 [1],MBC [2],MIC [3],MIC [4],MBC [5],MIC [6],MIC [7],MBC [8],MIC [9],MBC [10],MIC [11],MIC [12],MBC [13],MIC [15],MIC [16],IC50 [17],MBC [18],IC50 [19],MIC [20],IC50 [21],other results
"C[n+]1cc2c(c3ccccc31)Nc1cc(OCc3cn(Cc4ccc([N+](=O)[O-])cc4)nn3)ccc1S2 [2h, 5-Methyl-10-[1-(4-nitrobenzyl)-1H-1,2,3-triazol-4-yl]methoxy-12H-quino [3,4-b][1,4]benzothiazinium chloride]",14.6 ± 0.6 µM,16.3 µM,131 µM,131 µM,32.7 µM,16.3 µM,32.7 µM,131 µM,> 524 µM,131 µM,> 524 µM,> 524 µM,262 µM,> 524 µM,262 µM,6.3 ± 0.3 µM,262 µM,> 100 µM,262 µM,9.3 ± 0.5 µM,Conc.: lowest multiple of MBC with at least 70% inhibition of respiratory activity [14]: 1× MIC (1× MBC); Conc.: lowest multiple of MIC with at least 70% inhibition of respiratory activity [14]: 1× MIC (1× MBC); viability of M. smegmatis at MIC value ([14]; Mycobacterium smegmatis): less than 70%; M. smegmatis Respiration Inhibition [14]: 81.4%
"C[n+]1cc2c(c3ccccc31)Nc1ccc(OCc3cn(CSc4ccccc4)nn3)cc1S2 [2j, 5-Methyl-9-(1-(phenylthio)methyl-1H-1,2,3-triazol-4-yl)methoxy-12H-quino [3,4-b][1,4]benzothiazinium chloride]",10.5 ± 0.7 µM,16.3 µM,65.5 µM,32.7 µM,16.3 µM,16.3 µM,16.3 µM,65.5 µM,524 µM,32.7 µM,524 µM,524 µM,65.5 µM,524 µM,65.5 µM,19.3 ± 1.2 µM,65.5 µM,28.7 ± 1.2 µM,65.5 µM,8.8 ± 0.4 µM,Conc.: lowest multiple of MBC with at least 70% inhibition of respiratory activity [14]: 2× MIC (2× MBC); Conc.: lowest multiple of MIC with at least 70% inhibition of respiratory activity [14]: 2× MIC (2× MBC); M. smegmatis Respiration Inhibition [14]: 87.6%
"C[n+]1cc2c(c3ccccc31)Nc1c(OCc3cn(CSc4ccccc4)nn3)cccc1S2 [2l, 5-Methyl-11-(1-(phenylthio)methyl-1H-1,2,3-triazol-4-yl)methoxy-12H-quino [3,4-b][1,4] benzothiazinium chloride]",14.1 ± 0.6 µM,16.3 µM,65.5 µM,32.7 µM,16.3 µM,16.3 µM,16.3 µM,65.5 µM,524 µM,32.7 µM,524 µM,524 µM,65.5 µM,524 µM,65.5 µM,4.3 ± 0.2 µM,131 µM,> 100 µM,65.5 µM,9.6 ± 0.8 µM,Conc.: lowest multiple of MBC with at least 70% inhibition of respiratory activity [14]: 2× MIC (2× MBC); Conc.: lowest multiple of MIC with at least 70% inhibition of respiratory activity [14]: 2× MIC (2× MBC); M. smegmatis Respiration Inhibition [14]: 87.3%
"C[n+]1cc2c(c3ccccc31)Nc1cc(OCc3cn(CSc4ccccc4)nn3)ccc1S2 [2k, 5-Methyl-10-(1-(phenylthio)methyl-1H-1,2,3-triazol-4-yl)methoxy-12H-quino [3,4-b][1,4] benzothiazinium chloride]",16.4 ± 0.9 µM,32.7 µM,65.5 µM,16.3 µM,32.7 µM,32.7 µM,32.7 µM,65.5 µM,524 µM,16.3 µM,> 524 µM,524 µM,65.5 µM,524 µM,65.5 µM,10.6 ± 0.9 µM,65.5 µM,> 100 µM,65.5 µM,6.1 ± 0.3 µM,
